Measurements from paper PMC9400670, “Establishing the selective phospholipid membrane coordination, permeation and lysis properties for a series of ‘druggable’ supramolecular self-associating antimicrobial amphiphiles” (Chemical Science, 2022).

Test system: DPH-labelled synthetic vesicles
Assay: Synthetic vesicle membrane fluidity assay (DPH fluorescence polarisation)
Conditions: increasing SSA concentration; polar phospholipid membranes, excluding PC only; 298 K
Method: To further explore the effects of SSAs on physical phospholipid membrane characteristics, membrane fluidity experiments were performed. Here a dye (1,6-diphenyl-1,3,5-hexatriene – DPH) was inserted into the synthetic vesicle membrane to enable the study of increased/decreased membrane fluidity through competitive fluorescence polarisation (FP) measurements. In these studies, FP values are found to decrease with increasing membrane fluidity and vice versa. However, these studies could only be performed with SSAs 1–4 and 7 due to overlapping SSA/DHP fluorescence emission.
Section 2: General Methods […]
All solvents and starting materials were purchased from known chemical suppliers or available stores and used without any further purification unless specifically stipulated. […] Fluorescence and fluorescence polarisation measurements were conducted using a Clariostar plate reader and analysed using MARS data analysis […]
Preparation of calcein loaded vesicles: Lipid films were resuspended in buffer A (70 mM calcein, 10 mM TRIS pH 8.5, 0.5 mM EDTA, 110 mM NaCl, pH adjusted to 6-7) and subjected to 9 freeze-thaw cycles in liquid nitrogen and extruded 20 times through a 200 nm polycarbonate membrane. […] The hydrodynamic dimeter of the lipids was monitored using an Anton Paar LitesizerTM 500 to ensure the separation of free and entrapped calcein. […]

O=C(O)CNC(=O)Nc1ccc(C(F)(F)F)cc1 [SSA 4]
overall change in FP (membrane fluidity): > 10%
